Consider four compounds from patent US8288552B2, “Dihydropyridone amidesas P2X7 modulators” (Roche Palo Alto LLC, priority 2008, dated 2012).

The assay addresses T1, P2X7 (UniProt Q99572).
T1 sequence (Q99572 1-595): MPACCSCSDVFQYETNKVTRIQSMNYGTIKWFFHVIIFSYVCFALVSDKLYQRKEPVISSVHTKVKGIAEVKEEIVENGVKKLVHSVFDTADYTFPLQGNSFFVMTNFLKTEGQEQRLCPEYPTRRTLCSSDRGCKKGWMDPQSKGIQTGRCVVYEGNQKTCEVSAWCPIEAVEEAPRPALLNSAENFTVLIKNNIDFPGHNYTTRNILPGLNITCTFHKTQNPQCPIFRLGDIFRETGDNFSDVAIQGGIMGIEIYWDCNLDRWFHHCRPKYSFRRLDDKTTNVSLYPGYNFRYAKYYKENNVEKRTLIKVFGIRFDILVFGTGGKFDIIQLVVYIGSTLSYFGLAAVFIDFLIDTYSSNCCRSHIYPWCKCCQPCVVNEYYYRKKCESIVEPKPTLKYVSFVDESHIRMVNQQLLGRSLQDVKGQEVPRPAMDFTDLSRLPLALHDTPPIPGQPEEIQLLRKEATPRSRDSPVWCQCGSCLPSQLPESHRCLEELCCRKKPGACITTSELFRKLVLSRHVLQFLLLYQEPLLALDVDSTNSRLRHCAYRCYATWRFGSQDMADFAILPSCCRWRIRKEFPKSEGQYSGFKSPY
In words: P2X7 pKi of Table 1. It counts as cell-based. Summed up:
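Human P2X7 in 1321N1 cells and rat P2X7 in HEK293 cells, loaded with fluo-3 for 1 hr at 37° C, then exposed to antagonist for 20 min at room temperature. BzATP agonist was used at 100 μM final (human) or 5 μM final (rat), with fluorescence read for 5 min. The response was normalized to maximal fluorescence evoked by 5 μM ionomycin.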
Compound `COc1cccc(NC(=O)C2=CNC(=O)C[C@H]2c2ccc(F)cc2)c1C` [Compound 106, (S)-4-(4-Fluoro-phenyl)-6-oxo-1,4,5,6-tetrahydro-pyridine-3-carboxylic acid(3-methoxy-2-methyl-phenyl)-amide] showed a pKi of 7.375.

In the case of `COC[C@@H](O)COc1cc(NC(=O)C2=CNC(=O)C[C@H]2c2ccc(F)cc2)c(C)cc1Cl` [Compound 148, (S)-4-(4-Fluoro-phenyl)-6-oxo-1,4,5,6-tetrahydro-pyridine-3-carboxylic acid[4-chloro-5-((S)-2-hydroxy-3-methoxy-propoxy)-2-methyl-phenyl]-amide], the pKi was found to be 6.49.

For `COc1cc(NC(=O)C2=CNC(=O)CC2c2cccc(F)c2)c(Cl)cc1Cl` (stereo not shown) [Compound 22, 4-(3-Fluoro-phenyl)-6-oxo-1,4,5,6-tetrahydro-pyridine-3-carboxylic acid(2,4-dichloro-5-methoxy-phenyl)-amide], the pKi was 6.12.

`COc1cc(C)c(NC(=O)C2=C(C)NC(=O)CC2c2ccc(F)cc2)cc1OC` (stereo not shown) [Compound 126, 4-(4-Fluoro-phenyl)-2-methyl-6-oxo-1,4,5,6-tetrahydro-pyridine-3-carboxylic acid (4,5-dimethoxy-2-methyl-phenyl)-amide] came in with a negative-log Ki (pKi) of 6.48.
